Assay results from ChEMBL document CHEMBL4118135, “Optimized allosteric inhibition of engineered protein tyrosine phosphatases with an expanded palette of biarsenical small molecules” (Bioorg Med Chem, 2018).
Substitutions are numbered along the chain they refer to. Active and inactive are the calls of the source. No cut-off for these calls is given here.

Assays:
[1] = molecular target: T1, Tyrosine-protein phosphatase non-receptor type 7 (Homo sapiens) (UniProt P35236); assay: Inhibition of His6-tagged human wild-type HePTP catalytic domain overexpressed in Escherichia coli crude cell lysate at 2000 nM using pNPP as substrate incubated for 90 mins by quenched phosphatase activity assay
T1 sequence (whole entry): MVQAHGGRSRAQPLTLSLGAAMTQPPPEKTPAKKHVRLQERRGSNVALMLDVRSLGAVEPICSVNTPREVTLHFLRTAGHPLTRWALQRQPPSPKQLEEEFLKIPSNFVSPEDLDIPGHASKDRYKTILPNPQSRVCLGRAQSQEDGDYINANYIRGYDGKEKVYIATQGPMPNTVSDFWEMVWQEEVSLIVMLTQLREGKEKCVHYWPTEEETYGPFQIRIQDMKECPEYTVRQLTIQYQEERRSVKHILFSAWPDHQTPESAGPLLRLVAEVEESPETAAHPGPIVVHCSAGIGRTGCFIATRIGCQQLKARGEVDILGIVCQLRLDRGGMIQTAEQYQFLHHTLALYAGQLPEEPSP

[2] = system: T2, Tyrosine-protein phosphatase non-receptor type 7 (Homo sapiens), P35236 [P171C,V205C]; assay: Inhibition of allosterically sensitized mutant form of His6-tagged human HePTP catalytic domain at 1 uM using pNPP as substrate measured up to 10 mins by quenched phosphatase activity assay
T2 sequence (whole entry): T1 sequence (whole entry) with P171C, V205C

[3] = molecular target: T1, Tyrosine-protein phosphatase non-receptor type 7 (Homo sapiens); assay: Inhibition of His6-tagged wild type human HePTP catalytic domain overexpressed in Escherichia coli BL21(DE3) cells at 25 uM using pNPP as substrate incubated for 90 mins by quenched phosphatase activity assay
[4] = molecular target: Tyrosine-protein phosphatase non-receptor type 13 (Homo sapiens) (UniProt Q12923); assay: Inhibition of allosterically sensitized mutant form of His6-tagged human FAP1 catalytic domain using pNPP as substrate after 90 mins by quenched phosphatase activity assay
[5] = molecular target: T1, Tyrosine-protein phosphatase non-receptor type 7 (Homo sapiens); assay: Inhibition of His6-tagged human wild-type HePTP catalytic domain at 1 uM using pNPP as substrate incubated for 90 mins by quenched phosphatase activity assay
[6] = system: T2, Tyrosine-protein phosphatase non-receptor type 7 (Homo sapiens), P35236 [P171C,V205C]; assay: Binding affinity to allosterically sensitized mutant form of His6-tagged human HePTP catalytic domain overexpressed in Escherichia coli crude cell lysate at 25 to 100 uM using pNPP as substrate after 90 mins by SDS-PAGE and LC-MS/MS method
[7] = system: T2, Tyrosine-protein phosphatase non-receptor type 7 (Homo sapiens), P35236 [P171C,V205C]; assay: Binding affinity to allosterically sensitized mutant form of His6-tagged human HePTP catalytic domain overexpressed in Escherichia coli BL21(DE3) cells at 50 to 100 uM after 90 mins by SDS-PAGE analysis
[8] = system: T2, Tyrosine-protein phosphatase non-receptor type 7 (Homo sapiens), P35236 [P171C,V205C]; assay: Inhibition of allosterically sensitized mutant form of His6-tagged human HePTP catalytic domain overexpressed in Escherichia coli BL21(DE3) cells using pNPP as substrate incubated for 90 mins by quenched phosphatase activity assay
[9] = system: T3, Tyrosine-protein phosphatase non-receptor type 1 (Homo sapiens), P18031 [P87C,A122C]; assay: Inhibition of allosterically sensitized His6-tagged human PTP1B catalytic domain P87C/A122C mutant at 2000 nM using pNPP as substrate incubated for 10 to 40 mins by quenched phosphatase activity assay; settings: TDE = time-dependent effect
T3 sequence (whole entry): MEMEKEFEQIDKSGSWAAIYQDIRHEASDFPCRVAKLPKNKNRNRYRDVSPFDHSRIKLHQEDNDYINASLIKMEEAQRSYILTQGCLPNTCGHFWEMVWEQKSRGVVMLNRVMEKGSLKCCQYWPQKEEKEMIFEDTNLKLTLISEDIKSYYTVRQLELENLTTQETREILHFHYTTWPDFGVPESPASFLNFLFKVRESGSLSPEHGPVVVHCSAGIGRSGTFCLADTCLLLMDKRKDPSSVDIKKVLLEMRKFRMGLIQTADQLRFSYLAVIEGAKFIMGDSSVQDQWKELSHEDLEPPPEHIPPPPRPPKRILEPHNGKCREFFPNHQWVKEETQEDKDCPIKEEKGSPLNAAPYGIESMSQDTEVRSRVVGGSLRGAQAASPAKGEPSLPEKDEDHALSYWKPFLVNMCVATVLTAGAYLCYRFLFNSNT

[10] = molecular target: Tyrosine-protein phosphatase non-receptor type 6 (Homo sapiens) (UniProt P29350); assay: Inhibition of allosterically sensitized mutant form of His6-tagged human SHP1 catalytic domain using pNPP as substrate after 120 mins by quenched phosphatase activity assay
[11] = molecular target: T4, Tyrosine-protein phosphatase non-receptor type 1 (Homo sapiens) (UniProt P18031); assay: Inhibition of His6-tagged human wild-type PTP1B catalytic domain overexpressed in Escherichia coli crude cell lysate using pNPP as substrate incubated for 90 mins by quenched phosphatase activity assay
T4 sequence (whole entry): T3 sequence (whole entry) with C87P, C122A

[12] = molecular target: Tyrosine-protein phosphatase non-receptor type 1 (Homo sapiens, UniProt P18031, A122C/P87C); assay: Inhibition of allosterically sensitized His6-tagged human PTP1B catalytic domain P87C/A122C mutant using pNPP as substrate incubated for 90 mins by quenched phosphatase activity assay
[13] = molecular target: T4, Tyrosine-protein phosphatase non-receptor type 1 (Homo sapiens); assay: Binding affinity to His6-tagged human wild-type PTP1B catalytic domain overexpressed in Escherichia coli crude cell lysate at 6.66 uM incubated for 90 mins by SDS-PAGE and LC-MS/MS method
[14] = system: T3, Tyrosine-protein phosphatase non-receptor type 1 (Homo sapiens), P18031 [P87C,A122C]; assay: Inhibition of allosterically sensitized His6-tagged human PTP1B catalytic domain P87C/A122C mutant at 500 nM using DADEpYLIPQQG as substrate incubated for 90 mins by continuous phosphatase activity assay

Sequence of Tyrosine-protein phosphatase non-receptor type 13 (Homo sapiens) (Q12923 whole entry, the tested form may be a part): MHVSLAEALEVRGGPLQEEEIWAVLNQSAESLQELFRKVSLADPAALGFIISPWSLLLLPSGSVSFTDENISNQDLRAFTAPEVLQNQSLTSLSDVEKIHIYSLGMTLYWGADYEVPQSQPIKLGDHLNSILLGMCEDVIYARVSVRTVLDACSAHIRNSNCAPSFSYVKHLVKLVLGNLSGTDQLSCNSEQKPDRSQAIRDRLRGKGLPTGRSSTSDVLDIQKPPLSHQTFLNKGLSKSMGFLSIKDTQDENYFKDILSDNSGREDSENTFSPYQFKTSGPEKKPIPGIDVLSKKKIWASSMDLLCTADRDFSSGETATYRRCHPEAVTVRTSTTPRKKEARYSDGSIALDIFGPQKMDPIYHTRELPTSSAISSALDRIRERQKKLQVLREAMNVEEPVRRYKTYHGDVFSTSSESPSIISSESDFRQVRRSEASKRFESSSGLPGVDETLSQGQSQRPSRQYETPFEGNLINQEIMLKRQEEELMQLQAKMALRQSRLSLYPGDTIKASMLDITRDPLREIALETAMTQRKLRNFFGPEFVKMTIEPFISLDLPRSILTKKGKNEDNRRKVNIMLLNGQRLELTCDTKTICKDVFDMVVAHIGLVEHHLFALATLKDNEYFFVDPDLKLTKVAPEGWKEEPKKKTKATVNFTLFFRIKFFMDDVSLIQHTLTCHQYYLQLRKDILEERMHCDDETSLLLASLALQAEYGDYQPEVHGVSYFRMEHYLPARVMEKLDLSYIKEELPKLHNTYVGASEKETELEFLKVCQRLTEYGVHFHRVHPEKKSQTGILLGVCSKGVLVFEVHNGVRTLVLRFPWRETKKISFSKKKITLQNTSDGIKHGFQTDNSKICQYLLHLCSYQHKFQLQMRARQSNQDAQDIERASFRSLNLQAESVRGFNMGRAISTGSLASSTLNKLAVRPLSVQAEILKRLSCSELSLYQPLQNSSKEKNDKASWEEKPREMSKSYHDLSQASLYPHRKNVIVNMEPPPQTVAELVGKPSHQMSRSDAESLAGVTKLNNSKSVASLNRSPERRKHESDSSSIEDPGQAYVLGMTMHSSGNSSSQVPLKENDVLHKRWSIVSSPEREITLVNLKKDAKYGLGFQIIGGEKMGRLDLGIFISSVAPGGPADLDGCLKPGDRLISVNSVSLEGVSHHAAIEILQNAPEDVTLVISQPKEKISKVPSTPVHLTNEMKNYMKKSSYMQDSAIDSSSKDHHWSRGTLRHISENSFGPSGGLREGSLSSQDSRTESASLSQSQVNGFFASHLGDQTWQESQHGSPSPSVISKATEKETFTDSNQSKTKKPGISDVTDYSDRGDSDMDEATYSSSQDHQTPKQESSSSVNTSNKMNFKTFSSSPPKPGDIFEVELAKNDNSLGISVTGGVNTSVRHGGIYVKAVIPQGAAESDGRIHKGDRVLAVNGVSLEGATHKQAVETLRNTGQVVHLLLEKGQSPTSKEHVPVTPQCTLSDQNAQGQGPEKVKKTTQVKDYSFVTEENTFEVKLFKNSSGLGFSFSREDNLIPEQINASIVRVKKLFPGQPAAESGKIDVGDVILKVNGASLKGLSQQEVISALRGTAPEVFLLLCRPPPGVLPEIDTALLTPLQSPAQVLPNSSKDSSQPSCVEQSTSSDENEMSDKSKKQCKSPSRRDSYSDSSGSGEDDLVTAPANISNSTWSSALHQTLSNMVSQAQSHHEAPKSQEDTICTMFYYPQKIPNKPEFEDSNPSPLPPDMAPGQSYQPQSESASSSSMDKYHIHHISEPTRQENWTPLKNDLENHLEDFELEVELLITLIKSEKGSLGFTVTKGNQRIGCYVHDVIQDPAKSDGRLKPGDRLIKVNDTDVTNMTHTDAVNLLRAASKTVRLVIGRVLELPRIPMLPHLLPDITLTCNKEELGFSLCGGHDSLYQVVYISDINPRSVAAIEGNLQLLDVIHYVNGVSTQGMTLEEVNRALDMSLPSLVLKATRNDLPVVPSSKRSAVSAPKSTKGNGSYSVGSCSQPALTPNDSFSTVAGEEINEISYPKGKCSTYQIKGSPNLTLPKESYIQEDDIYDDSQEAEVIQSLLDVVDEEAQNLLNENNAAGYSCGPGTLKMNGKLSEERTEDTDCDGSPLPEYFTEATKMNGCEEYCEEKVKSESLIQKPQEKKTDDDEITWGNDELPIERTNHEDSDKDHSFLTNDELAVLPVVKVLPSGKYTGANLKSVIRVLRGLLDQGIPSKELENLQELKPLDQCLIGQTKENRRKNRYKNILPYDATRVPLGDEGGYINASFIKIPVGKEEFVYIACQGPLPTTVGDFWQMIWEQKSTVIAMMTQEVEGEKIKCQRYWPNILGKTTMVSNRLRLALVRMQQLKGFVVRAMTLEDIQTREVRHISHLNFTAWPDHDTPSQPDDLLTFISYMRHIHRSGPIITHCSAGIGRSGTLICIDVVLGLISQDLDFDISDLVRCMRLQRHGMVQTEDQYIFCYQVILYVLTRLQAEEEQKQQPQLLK
Sequence of Tyrosine-protein phosphatase non-receptor type 6 (Homo sapiens) (P29350 whole entry, the tested form may be a part): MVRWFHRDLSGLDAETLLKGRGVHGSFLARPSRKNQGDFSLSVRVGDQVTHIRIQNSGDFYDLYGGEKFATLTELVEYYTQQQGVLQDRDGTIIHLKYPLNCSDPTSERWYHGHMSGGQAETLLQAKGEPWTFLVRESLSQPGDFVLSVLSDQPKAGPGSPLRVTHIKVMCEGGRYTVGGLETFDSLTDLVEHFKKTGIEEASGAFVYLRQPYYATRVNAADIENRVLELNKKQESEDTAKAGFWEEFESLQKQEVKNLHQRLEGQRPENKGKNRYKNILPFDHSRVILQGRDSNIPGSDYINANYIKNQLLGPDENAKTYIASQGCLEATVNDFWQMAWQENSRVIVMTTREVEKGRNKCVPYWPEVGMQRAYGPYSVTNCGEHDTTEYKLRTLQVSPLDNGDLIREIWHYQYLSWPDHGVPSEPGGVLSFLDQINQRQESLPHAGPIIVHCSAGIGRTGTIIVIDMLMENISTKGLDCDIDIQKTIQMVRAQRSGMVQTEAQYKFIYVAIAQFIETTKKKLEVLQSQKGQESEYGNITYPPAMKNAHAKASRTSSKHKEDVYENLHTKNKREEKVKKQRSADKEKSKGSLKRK

Q: Which inhibition [1] does the source give for `O=C(O)c1ccccc1-c1c2ccc(=O)c([As]3SCCS3)c-2oc2c([As]3SCCS3)c(O)ccc12` here?
A: Its inhibition is “inactive”.

Q: And the inhibition [2]?
A: Its inhibition is 50%.

Q: And the inhibition [3]?
A: Its inhibition is “inactive”.

Q: What about the inhibition [4] of the same compound?
A: Its inhibition is “Dose-dependent effect”.

Q: What about the inhibition [5] of the same compound?
A: The inhibition was “inactive”.

Q: What about the Activity [6] of the same compound?
A: The Activity was “Active”.

Q: And the Activity [7]?
A: The Activity was “Active”.

Q: What about the inhibition [8] of the same compound?
A: The inhibition was “Dose-dependent effect”.

Q: `CC1(C)C(/C=C/C=C2/N(CCCCS(=O)(=O)O)c3ccc([As]4SCCS4)cc3C2(C)C)=[N+](CCCCS(=O)(=O)O)c2ccc([As]3SCCS3)cc21` was tested. Which inhibition [9] did it give?
A: The inhibition was “Tde”.

Q: What about the inhibition [10] of the same compound?
A: The inhibition was “Dose-dependent effect”.

Q: And the inhibition [11]?
A: The inhibition was “inactive”.

Q: And the IC50 [12]?
A: Its IC50 is 125 nM.

Q: What about the Activity [13] of the same compound?
A: Its Activity is “inactive”.

Q: What about the inhibition [14] of the same compound?
A: Its inhibition is “Active”.
